In ChEMBL document CHEMBL5257047, “Synthesis and Anti-Inflammatory Activity of the Natural Cyclooxygenase-2 Inhibitor Axinelline A and Its Analogues” (J Nat Prod, 2023) one finds Activity, inhibition and IC50 data, which are given here for five molecules.

Data set [1] relates to RAW264.7. As to the kind of experiment: Cytotoxicity against mouse RAW264.7 cells assessed as reduction in cell survival at 10 uM incubated for 24 hrs by MTT assay. It is filed as toxicity, cell-based. To be noted: raw264.7, 24 h. On the technique in general: Tetrazolium assays rely on reduction of a dye to a coloured formazan, in cell work by metabolically active cells.
Data set [2] concerns L929. The experiment in a line: Cytotoxicity against mouse L929 cells assessed as reduction in cell survival upto 50 uM incubated for 48 to 72 hrs by MTT assay. Type of data set: toxicity, cell-based. Conditions: l929, 50 µM, time 48-72 hrs.
The subject of data set [3] is RAW264.7. As to the kind of experiment: Inhibition of IKK phosphorylation in LPS-stimulated mouse RAW264.7 cells preincubated with compound for 1 hrs followed by LPS-stimulation and measured after 30 mins by Western blot analysis. Type of data set: cell-based. To be noted: dose 2-30 µM, time 1.5 hrs. A general note: Immunoblotting shows a protein as a band on a membrane.

Data set [4] relates to RAW264.7. The experiment in a line: Anti-inflammatory activity in mouse RAW264.7 cells assessed as decrease in LPS-induced iNOS protein expression incubated for 24 hrs by Western blot analysis. Type of data set: functional, cell-based. To be noted: dose 2-10 µM.
Data set [5] relates to RAW264.7. The experiment in a line: Anti-inflammatory activity in mouse RAW264.7 cells assessed as decrease in LPS-induced NO production incubated for 24 hrs by Griess reagent based assay. It is filed as functional, cell-based. To be noted: dose 2-30 µM.
The subject of data set [6] is RAW264.7. The experiment in a line: Anti-inflammatory activity in mouse RAW264.7 cells assessed as decrease in LPS-induced IL-1beta production incubated for 24 hrs by ELISA analysis. Type of data set: functional, cell-based. Conditions: dose 2-30 µM. On the technique in general: An ELISA detects its analyte on a solid surface through an enzyme-linked reagent.
For data set [7], the system named is L02. As to the kind of experiment: Cytotoxicity against human L02 cells assessed as reduction in cell survival upto 50 uM incubated for 48 to 72 hrs by MTT assay. It is filed as toxicity, cell-based. To be noted: l02, 50 µM, time 48-72 hrs.
Data set [8] addresses T1, Prostaglandin G/H synthase 2 (Homo sapiens, UniProt P35354).
T1 sequence (P35354 whole entry): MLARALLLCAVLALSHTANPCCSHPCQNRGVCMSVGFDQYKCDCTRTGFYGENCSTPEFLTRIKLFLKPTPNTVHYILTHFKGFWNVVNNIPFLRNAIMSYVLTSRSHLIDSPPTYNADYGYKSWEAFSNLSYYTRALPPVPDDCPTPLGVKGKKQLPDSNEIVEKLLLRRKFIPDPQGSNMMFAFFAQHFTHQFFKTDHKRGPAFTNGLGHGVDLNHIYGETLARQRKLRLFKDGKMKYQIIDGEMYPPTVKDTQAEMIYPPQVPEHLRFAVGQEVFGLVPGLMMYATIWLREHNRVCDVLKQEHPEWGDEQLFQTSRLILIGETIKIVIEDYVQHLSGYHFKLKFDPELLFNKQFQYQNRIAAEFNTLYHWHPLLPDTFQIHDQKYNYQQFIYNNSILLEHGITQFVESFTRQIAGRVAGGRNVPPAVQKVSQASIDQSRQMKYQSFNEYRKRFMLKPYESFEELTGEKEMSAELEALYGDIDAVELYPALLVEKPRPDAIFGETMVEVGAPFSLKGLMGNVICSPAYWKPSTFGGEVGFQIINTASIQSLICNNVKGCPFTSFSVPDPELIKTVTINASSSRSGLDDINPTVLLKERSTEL
As to the kind of experiment: Inhibition of recombinant human COX-2 using arachidonic acid as substrate preincubated with compound for 5 mins followed by substrate addition and measured after 2 mins by fluorescence spectrum analysis.

In data set [9] the test system is RAW264.7. As to the kind of experiment: Anti-inflammatory activity in mouse RAW264.7 cells assessed as decrease in LPS-induced TNF-alpha production incubated for 24 hrs by ELISA analysis. Type of data set: functional, cell-based. Conditions: dose 2-30 µM.
Data set [10] has as its system L02. As to the kind of experiment: Cytotoxicity against human L02 cells assessed as reduction in cell survival at 10 uM incubated for 24 hrs by MTT assay. Type of data set: toxicity, cell-based. To be noted: l02, 24 h.
The test system of data set [11] is RAW264.7. The experiment in a line: Cytotoxicity against mouse RAW264.7 cells assessed as reduction in cell survival upto 50 uM incubated for 48 to 72 hrs by MTT assay. Type of data set: toxicity, cell-based. To be noted: raw264.7, 50 µM, time 48-72 hrs.
For data set [12], the system named is RAW264.7. As to the kind of experiment: Effect of NF-kappaB protein level in LPS-stimulated mouse RAW264.7 cells at 2 to 30 uM preincubated with compound for 1 hrs followed by LPS-stimulation and measured after 30 mins by Western blot analysis. It is filed as functional, cell-based. Conditions: dose 2-30 µM, time 1.5 hrs.
Data set [13] has as its target T2, Prostaglandin G/H synthase 2 (Ovis aries, UniProt P79208).
T2 sequence (P79208 whole entry): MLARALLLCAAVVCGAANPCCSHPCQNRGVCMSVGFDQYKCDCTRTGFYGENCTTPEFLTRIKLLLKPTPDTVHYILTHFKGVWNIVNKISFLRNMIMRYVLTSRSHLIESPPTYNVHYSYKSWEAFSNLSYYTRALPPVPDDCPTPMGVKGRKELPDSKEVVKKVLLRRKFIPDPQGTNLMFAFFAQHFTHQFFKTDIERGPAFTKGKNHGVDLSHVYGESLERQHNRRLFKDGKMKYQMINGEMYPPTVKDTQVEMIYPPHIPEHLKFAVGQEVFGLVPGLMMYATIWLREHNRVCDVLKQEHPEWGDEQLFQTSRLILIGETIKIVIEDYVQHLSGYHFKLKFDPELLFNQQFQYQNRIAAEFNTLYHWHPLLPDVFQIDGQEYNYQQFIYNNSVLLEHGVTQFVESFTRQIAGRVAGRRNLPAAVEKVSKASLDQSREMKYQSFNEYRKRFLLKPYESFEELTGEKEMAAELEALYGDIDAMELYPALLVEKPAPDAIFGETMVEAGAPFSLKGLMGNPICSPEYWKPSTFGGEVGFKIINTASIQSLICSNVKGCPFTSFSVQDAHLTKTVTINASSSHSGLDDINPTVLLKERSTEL
The experiment in a line: Inhibition of ovine COX-2 assessed as reduction in PGF2alpha production by enzyme immunoassay.

The test system of data set [14] is L929. As to the kind of experiment: Cytotoxicity against mouse L929 cells assessed as reduction in cell survival at 10 uM incubated for 24 hrs by MTT assay. It is filed as toxicity, cell-based. Conditions: l929, 24 h.
Data set [15] relates to RAW264.7. As to the kind of experiment: Anti-inflammatory activity in mouse RAW264.7 cells assessed as decrease in LPS-induced COX-2 protein expression incubated for 24 hrs by Western blot analysis. Conditions: dose 2-10 µM. Type of data set: functional, cell-based.
The subject of data set [16] is RAW264.7. The experiment in a line: Inhibition of NF-kappaB phosphorylation in LPS-stimulated mouse RAW264.7 cells at 2 to 30 uM preincubated with compound for 1 hrs followed by LPS-stimulation and measured after 30 mins by Western blot analysis. Type of data set: cell-based. Conditions: dose 2-30 µM, time 1.5 hrs.
In data set [17] the target is T3, Prostaglandin G/H synthase 1 (Ovis aries, UniProt P05979).
T3 sequence (P05979 whole entry): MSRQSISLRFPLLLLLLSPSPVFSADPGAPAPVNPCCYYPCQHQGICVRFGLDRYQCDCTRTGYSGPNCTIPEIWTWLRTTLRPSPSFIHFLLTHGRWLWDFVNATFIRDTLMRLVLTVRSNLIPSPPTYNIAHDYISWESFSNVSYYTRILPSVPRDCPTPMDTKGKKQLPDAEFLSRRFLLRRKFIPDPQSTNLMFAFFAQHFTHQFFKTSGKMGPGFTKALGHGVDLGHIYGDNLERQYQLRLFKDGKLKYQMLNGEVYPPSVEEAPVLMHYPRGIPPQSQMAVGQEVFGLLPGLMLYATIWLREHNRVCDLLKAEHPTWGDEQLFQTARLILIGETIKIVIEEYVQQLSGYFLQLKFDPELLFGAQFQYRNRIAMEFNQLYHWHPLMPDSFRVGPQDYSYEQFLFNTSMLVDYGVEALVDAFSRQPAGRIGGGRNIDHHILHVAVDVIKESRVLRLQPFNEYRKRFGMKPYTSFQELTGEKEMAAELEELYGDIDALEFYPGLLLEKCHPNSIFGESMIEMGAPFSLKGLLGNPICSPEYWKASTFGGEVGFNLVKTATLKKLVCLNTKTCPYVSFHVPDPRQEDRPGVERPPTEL
The experiment in a line: Inhibition of ovine COX-1 using arachidonic acid as substrate preincubated with compound for 5 mins followed by substrate addition and measured after 2 mins by fluorescence spectrum analysis.

The subject of data set [18] is RAW264.7. The experiment in a line: Anti-inflammatory activity in mouse RAW264.7 cells assessed as decrease in LPS-induced IL-6 production incubated for 24 hrs by ELISA analysis. Type of data set: functional, cell-based. Conditions: dose 2-30 µM.
The target of data set [19] is T4, NF-kappa-B inhibitor alpha (Mus musculus) (UniProt Q9Z1E3).
T4 sequence (whole entry): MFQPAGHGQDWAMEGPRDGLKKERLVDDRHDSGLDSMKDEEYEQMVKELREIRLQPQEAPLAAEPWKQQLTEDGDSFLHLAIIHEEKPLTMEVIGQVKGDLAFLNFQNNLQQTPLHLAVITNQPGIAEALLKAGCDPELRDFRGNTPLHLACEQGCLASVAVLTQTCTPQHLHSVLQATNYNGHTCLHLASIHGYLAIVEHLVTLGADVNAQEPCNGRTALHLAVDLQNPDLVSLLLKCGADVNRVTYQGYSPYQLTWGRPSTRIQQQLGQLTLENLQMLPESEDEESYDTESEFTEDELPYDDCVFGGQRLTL
The experiment in a line: Inhibition of IkappaBalpha phosphorylation in LPS-stimulated mouse RAW264.7 cells preincubated with compound for 1 hrs followed by LPS-stimulation and measured after 30 mins by Western blot analysis. Type of data set: cell-based. To be noted: dose 2-30 µM, time 1.5 hrs.

For data set [20], the target named is T5, Prostaglandin G/H synthase 2 (Mus musculus) (UniProt Q05769).
T5 sequence (whole entry): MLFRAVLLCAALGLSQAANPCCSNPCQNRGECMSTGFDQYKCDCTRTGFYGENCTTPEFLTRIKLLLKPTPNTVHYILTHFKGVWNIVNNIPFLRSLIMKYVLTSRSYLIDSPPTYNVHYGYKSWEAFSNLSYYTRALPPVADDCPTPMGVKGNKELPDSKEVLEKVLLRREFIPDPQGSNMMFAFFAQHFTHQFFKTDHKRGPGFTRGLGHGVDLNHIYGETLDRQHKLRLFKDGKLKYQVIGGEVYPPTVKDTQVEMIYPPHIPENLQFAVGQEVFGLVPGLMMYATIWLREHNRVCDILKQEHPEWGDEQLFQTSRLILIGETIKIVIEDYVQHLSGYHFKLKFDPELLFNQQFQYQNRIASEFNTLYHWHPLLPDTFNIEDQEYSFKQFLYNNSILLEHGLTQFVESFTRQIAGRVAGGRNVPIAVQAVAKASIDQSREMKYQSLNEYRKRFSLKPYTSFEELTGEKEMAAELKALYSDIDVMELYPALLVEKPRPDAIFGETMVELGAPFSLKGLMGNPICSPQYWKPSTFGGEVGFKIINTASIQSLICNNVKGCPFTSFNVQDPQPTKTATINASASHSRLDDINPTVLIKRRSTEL
As to the kind of experiment: Inhibition of COX-2 in mouse RAW264.7 cells assessed as suppression of LPS-induced PGE2 production at 2 to 30 uM incubated for 24 hrs by ELISA analysis. To be noted: dose 2-30 µM. It is filed as cell-based.

Data set [21] deals with T6, Prostaglandin G/H synthase 2 (Homo sapiens) (UniProt P35354).
T6 sequence (whole entry): T1 sequence (P35354 whole entry)
As to the kind of experiment: Inhibition of recombinant human COX-2 using arachidonic acid as substrate at 10 uM preincubated with compound for 5 mins followed by substrate addition and measured after 2 mins by fluorescence spectrum analysis. Conditions: time 7.0 min.

Data set [22] deals with T7, Prostaglandin G/H synthase 1 (Ovis aries) (UniProt P05979).
T7 sequence (whole entry): T3 sequence (P05979 whole entry)
As to the kind of experiment: Inhibition of ovine COX-1 using arachidonic acid as substrate at 10 uM preincubated with compound for 5 mins followed by substrate addition and measured after 2 mins by fluorescence spectrum analysis. Conditions: time 7.0 min.

Each structure is given as a SMILES string. The source made the active and inactive calls. The calls are words filed in the database; no cut-off is given here.

Regarding `CCOC(=O)[C@H](CO)NC(=O)c1cccc(O)c1O`, the Activity result in data set [1] is “Non-Toxic”; in data set [2], “Toxic”; in data set [4], “Dose-Dependent Effect”; in data set [5], “Dose-Dependent Effect”; in [6], “Dose-Dependent Effect”; in data set [7] it was “Toxic”. Moreover, the Activity entry in data set [9] was “Dose-Dependent Effect”; in data set [10], “Non-Toxic”; in data set [11], “Toxic”; in [14], “Non-Toxic”; in data set [15], “Dose-Dependent Effect”; in data set [18], “Dose-Dependent Effect”. Further, the inhibition entry in [3] and in data set [19] was “Dose-Dependent Effect” in each case. Besides, the IC50 is 2220 nM in data set [8], 2800 nM in [13] and 8890 nM in data set [17]. Besides, the outcome in data set [12] was inactive. Also, the inhibition entry in data set [16] and in [20] was “Active” in each case.
As for `CCOC(=O)[C@H](CO)NC(=O)c1ccc(O)cc1`, the inhibition result in data set [21] and in data set [22] was “Active” throughout.
As for `CCOC(=O)[C@H](CO)NC(=O)c1cccc(O)c1`, the inhibition result in data set [21] and in data set [22] was “Active” in each case.
Regarding `CCOC(=O)[C@H](CO)NC(=O)c1ccccc1O`, the inhibition result in data set [21] and in data set [22] was “Active” throughout.
As to `CCOC(=O)[C@H](CO)NC(=O)c1ccccc1`, the inhibition result in data set [21] and in [22] was “Active” throughout.

Usually IC50 stands for the concentration that inhibits the measured activity by half.
